One series has as its system SARS-CoV-1pp. The experiment in a line: microbe, parasite or virus in culture. It counts as cell-based. Particulars: Severe acute respiratory syndrome coronavirus, HEK293, 48 h, read-out: EC50 SARS-CoV-1pp.
The next series deals with SARS-CoV-2pp. The experiment in a line: microbe, parasite or virus in culture. It counts as cell-based. The conditions noted are these: for EC50: Severe acute respiratory syndrome coronavirus 2, HEK293, 48 h, read-out: EC50 SARS-CoV-2pp; for IC50: Severe acute respiratory syndrome coronavirus 2, HEK293, read-out: IC50, inhibition of SARS-CoV-2pp infection of HEK-293-hACE2 cells.

Series [1] relates to B.1.1.7 (alpha) SARS-CoV-2pp. The experiment in a line: microbe, parasite or virus in culture. It counts as cell-based. The conditions noted are these: Severe acute respiratory syndrome coronavirus 2, HEK293, 48 h, read-out: EC50 B.1.1.7 (alpha) SARS-CoV-2pp.
Series [2] has as its system B.1.351 (beta) SARS-CoV-2pp. The experiment in a line: microbe, parasite or virus in culture. It counts as cell-based. Particulars: Severe acute respiratory syndrome coronavirus 2, HEK293, 48 h, read-out: EC50 B.1.351 (beta) SARS-CoV-2pp.
Series [3] deals with B.1.617.2 (delta) SARS-CoV-2pp. The experiment in a line: microbe, parasite or virus in culture. It counts as cell-based. The conditions noted are these: Severe acute respiratory syndrome coronavirus 2, HEK293, 48 h, read-out: EC50 B.1.617.2 (delta) SARS-CoV-2pp.
Series [4] relates to B.1.1.28 (gamma) SARS-CoV-2pp. Kind of series: microbe, parasite or virus in culture. It counts as cell-based. The conditions noted are these: Severe acute respiratory syndrome coronavirus 2, HEK293, 48 h, read-out: EC50 B.1.1.28 (gamma) SARS-CoV-2pp.
Series [5] has as its system B.1.1.529 (omicron) SARS-CoV-2pp. Kind of series: microbe, parasite or virus in culture. Particulars: Severe acute respiratory syndrome coronavirus 2, HEK293, 48 h, read-out: EC50 B.1.1.529 (omicron) SARS-CoV-2pp. It counts as cell-based.
A further series concerns BA.2 SARS-CoV-2pp. The experiment in a line: microbe, parasite or virus in culture. It counts as cell-based. Particulars: Severe acute respiratory syndrome coronavirus 2, HEK293, 48 h, read-out: EC50 BA.2 SARS-CoV-2pp.
In series [6] the test system is SARS CoV-2 2019-nCoV/USA-WA1/2020. Kind of series: Efficacy in SARS-CoV2 infected K18-hACE2 mice (lung viral load by plaque assay). It counts as in vivo. Particulars: 2 h before and 24 h after infection, 3 days post-infection; for effect on SARS-CoV2 viral load in lung homogenates: 100 mg/kg p.o. at 24 h before.
Series [7] can be described thus: Pharmacokinetics analysis in mice. Particulars: C57 Bl/6, mouse, plasma, po.
The subject of series [8] is SARS-CoV-2. The experiment in a line: microbe, parasite or virus in culture. It counts as cell-based. The conditions noted are these: Severe acute respiratory syndrome coronavirus 2, A549, read-out: IC50, inhibition of SARS-CoV-2 infection of A549-hACE2 cells.
Another series deals with MERSpp. Kind of series: microbe, parasite or virus in culture. The conditions noted are these: Middle East respiratory syndrome-related coronavirus, HeLa, 48 h, read-out: EC50 MERSpp. It counts as cell-based, MERS.
For a further series, the target named is T1, AXL kinase (Homo sapiens, UniProt P30530).
T1 construct: purchased Reaction Biology
T1 sequence (P30530 26-894): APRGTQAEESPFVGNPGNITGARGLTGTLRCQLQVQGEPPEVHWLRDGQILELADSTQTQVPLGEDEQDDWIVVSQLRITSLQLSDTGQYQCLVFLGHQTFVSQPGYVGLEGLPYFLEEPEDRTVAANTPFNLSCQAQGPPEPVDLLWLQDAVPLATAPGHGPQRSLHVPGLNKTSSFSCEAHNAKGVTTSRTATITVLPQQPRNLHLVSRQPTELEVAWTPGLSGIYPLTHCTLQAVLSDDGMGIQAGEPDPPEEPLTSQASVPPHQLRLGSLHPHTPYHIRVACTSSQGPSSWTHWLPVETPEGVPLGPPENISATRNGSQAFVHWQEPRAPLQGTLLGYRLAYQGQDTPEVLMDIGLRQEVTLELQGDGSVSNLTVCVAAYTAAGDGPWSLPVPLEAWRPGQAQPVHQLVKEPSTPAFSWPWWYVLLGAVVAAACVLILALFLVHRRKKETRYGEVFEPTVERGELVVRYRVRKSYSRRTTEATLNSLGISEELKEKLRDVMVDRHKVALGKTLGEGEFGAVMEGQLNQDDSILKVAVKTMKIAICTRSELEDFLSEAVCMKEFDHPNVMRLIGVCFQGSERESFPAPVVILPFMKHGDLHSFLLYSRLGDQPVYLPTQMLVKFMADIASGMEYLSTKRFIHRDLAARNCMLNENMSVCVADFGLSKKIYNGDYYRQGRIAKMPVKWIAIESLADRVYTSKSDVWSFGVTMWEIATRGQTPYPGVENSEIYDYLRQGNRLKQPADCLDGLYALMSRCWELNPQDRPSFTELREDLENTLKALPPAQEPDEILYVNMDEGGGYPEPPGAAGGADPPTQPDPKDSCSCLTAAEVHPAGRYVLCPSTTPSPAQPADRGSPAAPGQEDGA
The experiment in a line: AXL kinase assay (Reaction Biology Hot Spot, 33P-ATP). It counts as biochemical.

Series [9] relates to A549 cells. The experiment in a line: A549 cell vacuolization analysis (phase contrast). Particulars: 5 µM, 24 h.
Series [10] has as its system A549 cells. The experiment in a line: A549 cell phospholipidosis (NBD-PE staining assay). The conditions noted are these: 24 h, dose-range; amiodarone positive control.
For series [11], the system named is SARS-CoV-2. The conditions noted are these: ref Dittmar et al., 2021; cited from earlier work.
The next series relates to COVID-19. Particulars: Phase 2 clinical trial; ref BerGenBio, 2022; cited from earlier work.

As for `FC(F)(F)c1nc(Nc2ccc3c(c2)CCC(N2CCCC2)CC3)n(-c2cc3c(nn2)-c2ccccc2CCC3)n1` (centres unmarked) [WYS-694], the EC50 was 820 ± 1020 nM in the series on SARS-CoV-1pp; 80 ± 30 nM in the series with SARS-CoV-2pp; 120 ± 70 nM in [1]; 180 ± 110 nM in series [2]; 130 ± 90 nM in series [3]; 160 ± 150 nM in [4]. For the same molecule, the EC50 in series [5] turned out to be 130 ± 120 nM; in the series on BA.2 SARS-CoV-2pp, 450 ± 440 nM. In addition, the “fold more potent than WYS-633 in inhibiting viral entry” value in the series on SARS-CoV-2pp came out at 12.5 fold. In addition, in series [6] (30 mg/kg p.o. at 24 h before), the “reduction of SARS-CoV-2 viral load in lung homogenates” value is “more than 4 fold”. In addition, the AUC (in general, the area under the concentration-time curve, a measure of exposure) in series [7] (30 mg/kg) was 10700 ng·h/mL. Also, the highest level in [7] (30 mg/kg) (Cmax) was 556 ng/mL. Moreover, the Tmax (usually the time from dosing to the highest level) in series [7] (30 mg/kg) is 24 h.

For the molecule `c1ccc2c(c1)CCCc1cc(-c3nnc(Nc4ccc5c(c4)CCC(N4CCCC4)CC5)o3)nnc1-2` (centres unmarked) [WYS-633], the IC50 (in general, the point on the concentration scale where inhibition reaches its midpoint) was 610 nM in the series with SARS-CoV-2 [8] and 2520 nM with SARS-CoV-2pp. Also, the EC50 amounted to 750 ± 70 nM with SARS-CoV-1pp; 2520 ± 2260 nM with SARS-CoV-2pp; 1230 ± 580 nM in series [1]; 1250 ± 50 nM in series [2]; 1050 ± 370 nM in series [3]; 1660 ± 710 nM in series [4]. Also, the EC50 in [5] is 1030 ± 650 nM; in the series with BA.2 SARS-CoV-2pp it was 680 ± 290 nM; in the series with MERSpp, 310 ± 120 nM. For the same molecule, the “activity against AXL kinase (in words)” value at AXL kinase is “inactive”. Besides, in series [6], the “effect on SARS-CoV2 viral load in lung homogenates” value is “failed to reduce SARS-CoV2 viral load”. Moreover, the AUC in series [7] (100 mg/kg) is 7920 ng·h/mL. The Cmax (commonly the highest concentration seen after dosing) in series [7] (100 mg/kg) amounted to 950 ng/mL. Also, the Tmax in series [7] (100 mg/kg) came to 2 h. The “vacuolization in human lung A549 cells” value with A549 cells [9] is recorded as “did not”. For the same molecule, in the series with A549 cells [10], the “phospholipidosis in A549 cells (NBD-PE staining)” value is reported as “neither compound demonstrated phospholipidosis”.

`Nc1nc(Nc2ccc3c(c2)CC[C@@H](N2CCCC2)CC3)nn1-c1cc2c(nn1)-c1ccccc1CCC2` [Bemcentinib, bemcentinib, reference compound]: the figures for the IC50 with SARS-CoV-2 [8] and in the series on SARS-CoV-2pp were 70 nM and 5700 nM, respectively. Moreover, the EC50 with SARS-CoV-1pp stood at 910 ± 10 nM; in the series with SARS-CoV-2pp, 5680 ± 3760 nM; in series [1] it was 430 ± 180 nM; in series [2], 390 ± 140 nM; in series [3], 380 ± 140 nM; in series [4], 420 ± 120 nM. Besides, the figures for the EC50 (in [5]; with BA.2 SARS-CoV-2pp; with MERSpp) were 210 ± 10 nM, 160 ± 30 nM and 90 ± 10 nM, respectively. In series [6], the “effect on SARS-CoV2 viral load in lung homogenates” value was “failed to reduce SARS-CoV2 viral load”. For the same molecule, the “inhibition of SARS-CoV-2 infection of human lung Calu-3 cells” value in the series with SARS-CoV-2 [11] is on record as “inhibits SARS-CoV-2 infection of human lung Calu-3 cells”. The “clinical response in patients hospitalized with COVID-19” value in the series with COVID-19 is “improved clinical response and key secondary endpoints”. In addition, the area under the curve (AUC) in series [7] (100 mg/kg) is 33300 ng·h/mL. For the same molecule, in series [7] (100 mg/kg), the concentration peaked (Cmax) at 1760 ng/mL. Also, in series [7] (100 mg/kg), the Tmax is 13 h. Also, the “vacuolization in human lung A549 cells” value in the series on A549 cells [9] is “induced significant vacuolization”. In addition, the “phospholipidosis in A549 cells (NBD-PE staining)” value in the series with A549 cells [10] is “neither compound demonstrated phospholipidosis”.
